# Assays:
# [1] = system: panel of human colorectal cell lines; assay: Luminex 200 analysis of tumor cell culture supernatants (Example 1); type: cell-based
# Procedure: Human cytokine profiling. Human cell line culture supernatants were analyzed using an R&D systems Human Premixed Multi-Analyte Kit (R&D Systems, Inc., Minneapolis, MN, USA) and a Luminex 200 (RRID: SCR_018025) Instrument (LX200-XPON-RUO, Luminex Corporation, Austin, TX, USA) according to the manufacturer's instructions. Sample levels of TNF-α, 4-1BB/TNFRSF9/CD137, IL-8/CXCL8, Ferritin, IFN-β, IL-10, CCL2/JE/MCP-1, VEGF, CXCL13/BLC/BCA-1, IFN-γ, CCL20/MIP-3 α, CCL3/MIP-1 α, CCL22/MDC, CCL4/MIP-1 β, Fas Ligand/TNFSF6, IL-17/1L-17A, IL-2, BAFF/BLyS/TNFSF13B, GM-CSF, CXCLS/ENA-78, TRANCE/TNFSF11/RANK L, CXCL9/MIG, G-CSF, IFN-γ R1/CD119, VEGFR3/Flt-4, C-Reactive Protein/CRP, CXCL11/I-TAC, IL-21, CXCL14/BRAK, IL-6, Fas/TNFRSF6/CD95, TRAIL R3/TNFRSF10C, IL-4, CCL5/RANTES, PD-L1/137-H1, CCL7/MCP-3/MARC, Chitinase 3-like 1, CXCL10/IP-10/CRG-2, IL-1 μ/IL-1F2, IL-7, Prolactin, CCL8/MCP-2, TRAIL R2/TNFRSF10B, M-CSF, IL-15, Granzyme B, IFN-α, TREM-1, IL-12/1L-23 p40, TRAIL/TNFSF10, CCL11/Eotaxin, and 1L-18/1L-1F4. Quantitative analysis with 6 standards and a minimum of 50 counts per bead region was used with the Luminex to generate analyte values reported as picograms/milliliter (pg/mL). Sample concentrations less than the lower limit of detection for each particular analyte were recoded as the lower limit value divided by 10. Sample concentrations above the upper limit of detection for a particular analyte were recoded as the upper limit of detection.
# A panel of human colorectal cell lines was chosen to provide a varied mutational background (TP53, KRAS, BRAF, TRK, APC, PIK3CA). Cells were treated with elraglusib at doses up to 50 μM for seventy-two hours to determine IC10, IC30, IC50, and IC70. Cytokine, chemokine, and growth factor levels were analyzed in the tumor cell culture supernatants after treatment at IC10, IC30, IC50, and IC70 for forty-eight hours using a Luminex 200 multiplexing instrument. Co-culture experiments were conducted with GFP+ SW480 colorectal cancer cells and either NK-92 natural killer cells or TALL-104 T cells at various effector/target ratios in a 48-well plate, in the presence or absence of elraglusib.
# [2] = system: HT-29; assay: microarray analysis; type: cell-based, human; settings: 1 μM, 24 hours, vs untreated
# Procedure: Microarrays. A total of 0.5×10^6 tumor cells (HCT-116, HT-29, KM12C) were plated in a 6-well plate and allowed to adhere overnight before 24-hour treatment, as indicated. Then, 1×10^6 immune cells (NK92, TALL-104) were plated and treated with elraglusib as indicated for twenty-four h. RNA was isolated from cell pellets in batches of six using a RNeasy Plus Mini Kit (Cat #74134, Qiagen, Hilden, Germany). Acceptable RNA concentration and quality were verified with Nanodrop and Bioanalyzer measurements. GeneChip™ Human Transcriptome Array 2.0 assays were conducted according to manufacturer instructions in two batches using randomized samples to limit batch effects (Cat #902162, Applied Biosystems, Waltham, MA, USA). Applied Biosystems Transcriptomic Analysis Console (TAC) software (RRID: SCR_016519) was used to calculate fold changes in gene expression relative to the untreated control cells. Values were considered statistically significant for p values<0.05.
# The inventors then utilized microarray analysis to gain insights into gene expression changes in colorectal cancer cell lines post-GSK-3 inhibition with elraglusib. Several colorectal cancer cell lines (HCT-116, HT-29, KM12C) were treated with elraglusib at IC-50 concentrations or DMSO as vehicle control for twenty-four hours. Treated versus untreated samples were compared in triplicate using microarray analysis FIG. 10. Results were calculated using a fold change (FC) cutoff of >1.5, <−1.5, and a minimum p-value of<0.05. HCT-116 cells had 340 differentially expressed genes post-treatment. FIG. 2C.
# TABLE 9 description. HT-29 CRC cell microarray analysis. HT-29 colorectal cancer cells were treated with 1 μM elraglusib for 24 hours and treated versus untreated control samples were compared in triplicate via microarray analysis (N=3). Table showing differentially expressed genes of interest with their corresponding fold changes, p values, descriptions, and functions. Genes highlighted in yellow are known p53 targets. Genes are ordered by fold change and were calculated using a fold change cutoff of >1.5, <−1.5, and a minimum p value of <0.05.
smiles,measurement,setting,value
Cn1cc(C2=C(c3coc4ccc(F)cc34)C(=O)NC2=O)c2cc3c(cc21)OCO3 [elraglusib],macrophage colony-stimulating factor (M-CSF),[1],decrease
same,VEGF in supernatant,"[1]; IC10, IC30, IC50, IC70 for forty-eight hours",decreased
same,Overall cytokine levels,[1]; in response to increasing doses,decreasing trend
same,CXCL14 (BRAK) in supernatant,[1]; with increasing doses,increase
same,AEN Fold Change,[2],2.33
same,AGGF1 Fold Change,[2],−2.21
same,B2M Fold Change,[2],2.41
same,BARD1 Fold Change,[2],−5.06
same,BCCIP Fold Change,[2],1.61
same,BCL6 Fold Change,[2],−3.43
same,BRAF Fold Change,[2],−1.53
same,BTN3A2 Fold Change,[2],−1.58
same,CCAR1 Fold Change,[2],1.56
same,CCNE1 Fold Change,[2],−2.6
same,CCNE2 Fold Change,[2],−5.83
same,CD14 Fold Change,[2],−2.63
same,CD276 Fold Change,[2],−1.56
same,CDC25C Fold Change,[2],−2.45
same,CDC45 Fold Change,[2],−1.75
same,CDCA3 Fold Change,[2],−1.7
same,CDK1 Fold Change,[2],−3.05
same,CDK2 Fold Change,[2],−2.23
same,CDKN1A Fold Change,[2],1.72
same,CRLF3 Fold Change,[2],1.5
same,DYNC1H1 Fold Change,[2],−1.7
same,E2F7 Fold Change,[2],−3.82
same,E2F8 Fold Change,[2],−3.1
same,EAPP Fold Change,[2],−1.58
same,EGR1 Fold Change,[2],5.41
same,ERBB2IP Fold Change,[2],−1.7
same,FADD Fold Change,[2],−1.66
same,FZD7 Fold Change,[2],−1.71
same,HIP1 Fold Change,[2],−1.67
same,IL17RA Fold Change,[2],−1.68
same,IL17RB Fold Change,[2],−2.03
same,ITGB6 Fold Change,[2],−1.91
same,JAK1 Fold Change,[2],−1.58
same,MAP3K1 Fold Change,[2],−6.1
same,MCIDAS Fold Change,[2],−1.61
same,MDM4 Fold Change,[2],1.68
same,MTA3 Fold Change,[2],−1.84
same,MYD88 Fold Change,[2],−1.68
same,NCR3LG1 Fold Change,[2],1.78
same,NFKBIA Fold Change,[2],−5.25
same,NFKBIZ Fold Change,[2],−2.68
same,PDS5B Fold Change,[2],−1.58
same,PIM1 Fold Change,[2],−1.75
same,SFN Fold Change,[2],1.54
same,SGK1 Fold Change,[2],−1.75
same,SMAD3 Fold Change,[2],1.69
same,SOCS7 Fold Change,[2],1.74
same,TGFBR3 Fold Change,[2],−4.82
same,TNFRSF12A Fold Change,[2],1.9
same,TNFSF15 Fold Change,[2],−2.32
same,TNIK Fold Change,[2],−1.51
same,TRAIP Fold Change,[2],1.83
same,TRIB1 Fold Change,[2],−9.14
same,UHRF1 Fold Change,[2],−1.75

# From US20240041830A1, “CIRCULATING BIOMARKERS OF RESPONSE TO PD-1/PD-L1 BLOCKADE AND GSK-3 INHIBITION” (Brown University, priority 2022, published 2024)
